The subject of data set [1] is Rattus norvegicus. The data set can be described thus: Percent Edema variation in Carrageenan-induced paw edema test at a dose of 100 mg/kg perorally in rats after 60 min. To be noted: route oral. Format: functional. In general terms: In the carrageenan paw model, swelling and tenderness develop within hours.
For data set [2], the system named is Rattus norvegicus. Description: Animals with Ulcers in Carrageenan-induced paw edema test at a dose of 100 mg/kg perorally in rats. Format: functional. To be noted: route oral.
Data set [3] relates to Rattus norvegicus. Description: Reaction time in Hot plate test at a dose of 100 mg/kg perorally in rats after 120 min. Format: functional. To be noted: route oral. (In general: Hot-plate and tail-flick tests time the reaction to a heat stimulus.)
Data set [4] relates to Rattus norvegicus. Description: Percent Edema variation in Carrageenan-induced paw edema test at a dose of 100 mg/kg perorally in rats after 120 min. Format: functional. The following applies: route oral.
A short description of data set [5]: Peroral dose causing 50% death of the mice population. Format: ADME, organism-based. To be noted: mouse, in vivo, po.
Data set [6] relates to Rattus norvegicus. The data set can be described thus: Percent Edema variation in Carrageenan-induced paw edema test at a dose of 100 mg/kg perorally in rats after 180 min. Format: functional. To be noted: route oral.
Data set [7] has as its system Rattus norvegicus. The data set can be described thus: Analgesic activity was determined using acetic acid writing test at a dose of 100 mg/kg perorally in rats.(p<0.01). Format: functional. The following applies: route oral.
Data set [8] can be described thus: Minimum concentration which causes 50% of the Artemia salina larvae to lose mobility. Format: ADME, organism-based. The following applies: in vivo.
The subject of data set [9] is Rattus norvegicus. Description: Reaction time in Hot plate test at a dose of 100 mg/kg perorally in rats after 180 min. Format: functional. The following applies: route oral.
In data set [10] the test system is Rattus norvegicus. Description: Number of writhings in Acetic acid Writhing test at a dose of 100 mg/kg perorally in rats. Format: functional. To be noted: route oral. (Writhing tests count abdominal constrictions after an irritant is injected.)
The test system of data set [11] is Rattus norvegicus. Description: Animals with Hyperemia in Carrageenan-induced paw edema test at a dose of 100 mg/kg perorally in rats. Format: functional. To be noted: route oral.
For data set [12], the system named is Rattus norvegicus. The data set can be described thus: Reaction time in Hot plate test at a dose of 100 mg/kg perorally in rats after 60 min (p<0.05). To be noted: route oral. Format: functional.
Data set [13] deals with Rattus norvegicus. The data set can be described thus: Reaction time in Hot plate test at a dose of 100 mg/kg perorally in rats after 180 min (p<0.05). Format: functional. To be noted: route oral.
Data set [14] deals with Rattus norvegicus. The data set can be described thus: Reaction time in Hot plate test at a dose of 100 mg/kg perorally in rats after 120 min (p<0.05). Format: functional. The following applies: route oral.
The test system of data set [15] is Rattus norvegicus. Description: Percent Edema variation in Carrageenan-induced paw edema test at a dose of 100 mg/kg perorally in rats after 180 min (p<0.01). Format: functional. To be noted: route oral.
The test system of data set [16] is Rattus norvegicus. The data set can be described thus: Analgesic activity was determined using acetic acid writing test at a dose of 100 mg/kg perorally in rats. (p<0.01). Format: functional. The following applies: route oral.
Data set [17] has as its system Rattus norvegicus. Description: Number of writhings in Acetic acid Writhing test at a dose of 100 mg/kg perorally in rats(p<0.05). Format: functional. To be noted: route oral.
The subject of data set [18] is Rattus norvegicus. Description: Reaction time in Hot plate test at a dose of 100 mg/kg perorally in rats after 60 min (p<0.01). Format: functional. To be noted: route oral.
Data set [19] relates to Rattus norvegicus. The data set can be described thus: Percent Edema variation in Carrageenan-induced paw edema test at a dose of 100 mg/kg perorally in rats after 60 min (p<0.01). Format: functional. The following applies: route oral.
Data set [20] deals with Rattus norvegicus. The data set can be described thus: Reaction time in Hot plate test at a dose of 100 mg/kg perorally in rats after 120 min (p<0.01). Format: functional. To be noted: route oral.
Data set [21] can be described thus: Animals with Ulcers in Carrageenan-induced paw edema test at a dose of 50 mg/kg perorally in rats. Format: functional. To be noted: route oral.
In data set [22] the test system is Rattus norvegicus. Description: Percent Edema variation in Carrageenan-induced paw edema test at a dose of 50 mg/kg perorally in rats after 180 min (p<0.01). Format: functional. To be noted: route oral.
Data set [23] relates to Rattus norvegicus. The data set can be described thus: Percent Edema variation in Carrageenan-induced paw edema test at a dose of 25 mg/kg perorally in rats after 180 min (p<0.01). Format: functional. To be noted: route oral.
Data set [24] deals with Rattus norvegicus. The data set can be described thus: Percent Edema variation in Carrageenan-induced paw edema test at a dose of 25 mg/kg perorally in rats after 60 min (p<0.01). Format: functional. The following applies: route oral.
The subject of data set [25] is Rattus norvegicus. Description: Reaction time in Hot plate test at a dose of 100 mg/kg perorally in rats after 180 min (p<0.001). The following applies: route oral. Format: functional.
Data set [26] concerns Rattus norvegicus. The data set can be described thus: Percent Edema variation in Carrageenan-induced paw edema test at a dose of 50 mg/kg perorally in rats after 120 min (p<0.01). Format: functional. To be noted: route oral.
Data set [27] concerns Rattus norvegicus. Description: Percent Edema variation in Carrageenan-induced paw edema test at a dose of 100 mg/kg perorally in rats after 120 min (p<0.001). Format: functional. The following applies: route oral.
Data set [28] is described as follows: Animals with Hyperemia in Carrageenan-induced paw edema test at a dose of 50 mg/kg perorally in rats. Format: functional. To be noted: route oral.
Data set [29] is described as follows: Animals with Ulcers in Carrageenan-induced paw edema test at a dose of 25 mg/kg perorally in rats. Format: functional. To be noted: route oral.
The test system of data set [30] is Rattus norvegicus. The data set can be described thus: Percent Edema variation in Carrageenan-induced paw edema test at a dose of 25 mg/kg perorally in rats after 120 min (p<0.01). Format: functional. The following applies: route oral.
The nature of data set [31]: Animals with Hyperemia in Carrageenan-induced paw edema test at a dose of 25 mg/kg perorally in rats. The following applies: route oral. Format: functional.
In data set [32] the test system is Rattus norvegicus. Description: Percent Edema variation in Carrageenan-induced paw edema test at a dose of 50 mg/kg perorally in rats after 60 min (p<0.01). Format: functional. To be noted: route oral.

SMILES strings stand for the structures.

For `COc1ccc([C@H]2SCC(=O)N2CCN2C(=O)CS[C@H]2c2ccc(OC)c(F)c2)cc1F`, the Edema variation with Rattus norvegicus [1] is given as 22.13%; in the data set on Rattus norvegicus [4] it was 25.12%; in the data set with Rattus norvegicus [6], 30.11%. For the same compound, the Animals in the data set on Rattus norvegicus [2] is recorded as 40%; in the data set with Rattus norvegicus [11], 20%. Besides, the Reaction time in the data set on Rattus norvegicus [3] amounted to 12.3 s; in the data set with Rattus norvegicus [9], 12.5 s; in the data set on Rattus norvegicus [12], 16.1 s. Further, the LD50 (commonly the dose at which mortality reaches 50%) in [5] is above 1000 mg/kg. Besides, at 100 mg/kg the inhibition in vivo in the data set with Rattus norvegicus [7] was 50%. Also, the LC50 (usually the concentration that kills 50% of the test population) in data set [8] was above 1000 µg/mL. In the data set with Rattus norvegicus [10], this compound showed a No. of writhings of 10.2.
Regarding `O=C1CS[C@H](c2ccc(Cl)c(Cl)c2)N1CCN1C(=O)CS[C@H]1c1ccc(Cl)c(Cl)c1`, the figures for the Edema variation in the data set on Rattus norvegicus [1], in the data set on Rattus norvegicus [4] and in the data set with Rattus norvegicus [6] were -61.12%, -61.1% and -61.2%, respectively. Besides, the Animals with Rattus norvegicus [2] is 0%; in the data set on Rattus norvegicus [11], 40%. Besides, the Reaction time in the data set with Rattus norvegicus [13] is listed as 22.9 s; in the data set with Rattus norvegicus [14], 22.5 s; with Rattus norvegicus [12], 18.7 s. In [5], the LD50 is above 1000 mg/kg. Besides, 100 mg/kg produced 77% inhibition in vivo in the data set with Rattus norvegicus [7]. Besides, the median lethal concentration (LC50) in data set [8] was above 1000 µg/mL. The same compound showed a No. of writhings with Rattus norvegicus [10] of 4.6.
Turning to `Cc1cccc([C@H]2SCC(=O)N2CCN2C(=O)CS[C@H]2c2cccc(C)c2)c1`, the Edema variation with Rattus norvegicus [1] is listed as 25.6%; in the data set with Rattus norvegicus [15], -55.81%; in the data set on Rattus norvegicus [4], -13.05%. Also, the Animals was determined as 20% with Rattus norvegicus [2] and 80% with Rattus norvegicus [11]. Further, the Reaction time with Rattus norvegicus [3] was 11.1 s; in the data set on Rattus norvegicus [9], 11 s; in the data set with Rattus norvegicus [12], 18.4 s. The median lethal dose (LD50) in [5] was above 1000 mg/kg. For the same compound, in the data set with Rattus norvegicus [16], the inhibition in vivo (in general, the share of the control response that was lost under treatment) at 100 mg/kg came to 64%. The compound further displayed a median lethal concentration (LC50) in data set [8] above 1000 µg/mL. In addition, the No. of writhings with Rattus norvegicus [17] came to 7.3.
For `COc1ccc([C@H]2SCC(=O)N2CCN2C(=O)CS[C@H]2c2ccc(OC)c(OC)c2)cc1OC`, the Animals in the data set on Rattus norvegicus [2] was found to be 0%; in data set [21], 0%; in data set [28], 20%; in data set [29] it was 0%; with Rattus norvegicus [11], 20%; in [31], 20%. The Edema variation in the data set on Rattus norvegicus [15] is -58.01%; in the data set with Rattus norvegicus [19] it was -58.28%; in the data set on Rattus norvegicus [22] it was -44.26%; in the data set with Rattus norvegicus [23], -40.09%; with Rattus norvegicus [24] it was -38.33%; in the data set with Rattus norvegicus [26] it was -59.49%. For the same compound, the Edema variation with Rattus norvegicus [27] is -62.33%; with Rattus norvegicus [30], -53.28%; with Rattus norvegicus [32], -53.62%. In addition, the Reaction time amounted to 26.6 s with Rattus norvegicus [18], 26.8 s with Rattus norvegicus [20] and 36.4 s in the data set on Rattus norvegicus [25]. In [5], this compound displayed a 50% lethal dose (LD50) above 1000 mg/kg. Moreover, in the data set with Rattus norvegicus [16], 100 mg/kg produced 51% inhibition in vivo. In data set [8], this compound showed an LC50 above 1000 µg/mL. Moreover, the No. of writhings in the data set on Rattus norvegicus [10] turned out to be 10.

The record behind these values is ChEMBL document CHEMBL1133821, “Synthesis and antiinflammatory, analgesic activity of 3,3'-(1,2-ethanediyl)-bis[2-aryl-4-thiazolidinone] chiral compounds. Part 10” (Bioorg Med Chem Lett, 2001).
